Results: patent US20100267561A1, “HERBICIDAL PYRIDAZINONE DERIVATIVES” (priority 2007, published 2010)

What was measured:
Format in all cases: in vivo
[1] = test system: barnyardgrass (Echinochloa crus-galli); experiment: Test A pre-/postemergence plant response
Summary of the method: (§1)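 Soil: loam blended with sand. Formulation: non-phytotoxic solvent mixture plus surfactant, applied as preemergence directed soil spray and as postemergence spray. Scoring: visual, 0 no effect to 100 complete control, roughly 10 days post-treatment in greenhouse.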

[2] = test system: corn (Zea mays); experiment: Test A pre-/postemergence plant response
Summary of the method: as §1

[3] = test system: large crabgrass (Digitaria sanguinalis); experiment: Test A pre-/postemergence plant response
Summary of the method: as §1

[4] = test system: morningglory (Ipomoea coccinea); experiment: Test A pre-/postemergence plant response
Summary of the method: as §1

[5] = test system: pigweed (Amaranthus retroflexus); experiment: Test A pre-/postemergence plant response
Summary of the method: as §1

[6] = test system: Italian ryegrass (Lolium multiflorum); experiment: Test B pre-/postemergence plant response; conditions: for Ryegrass, Italian plant response rating: 8 g ai/ha
Summary of the method: (§2)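 Visual scoring from 0 (no effect) to 100 (complete control) against untreated controls was done 13 to 15 days after greenhouse treatment. Chemicals were formulated in a surfactant-containing non-phytotoxic solvent and applied to soil preemergence or to 1- to 4-leaf (2-18 cm) plants postemergence.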

[7] = test system: bermudagrass (Cynodon dactylon); experiment: Test B pre-/postemergence plant response; conditions: for Bermudagrass plant response rating: 8 g ai/ha
Summary of the method: as §2

[8] = test system: johnsongrass (Sorghum halepense); experiment: Test B pre-/postemergence plant response; conditions: for Johnsongrass plant response rating: 8 g ai/ha
Summary of the method: as §2

[9] = test system: canarygrass (Phalaris minor); experiment: Test B postemergence plant response; conditions: for Plant response rating, Canarygrass: Postemergence
Summary of the method: (§3)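 Emerged plants, 1- to 4-leaf stage, treated; greenhouse 13–15 d; eye-scored vs untreated controls (0–100 scale).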

[10] = test system: chickweed (Stellaria media); experiment: Test B postemergence plant response; conditions: for Plant response rating, Chickweed: Postemergence
Summary of the method: as §3

[11] = test system: windgrass (Apera spica-venti); experiment: Test B postemergence plant response; conditions: for Plant response rating, Windgrass: Postemergence
Summary of the method: as §3

[12] = test system: winter barley (Hordeum vulgare); experiment: Test B postemergence plant response; conditions: for Plant response rating, Barley: Postemergence, scale 0 to 100, 0 no effect, 100 complete control
Summary of the method: as §3

[13] = Postemergence, 31 g ai/ha, 0 to 100 scale, 0 no effect, 100 complete control
[14] = Postemergence, 125 g ai/ha, 0 to 100 scale, 0 no effect, 100 complete control
[15] = Preemergence, 31 g ai/ha, 0 to 100 scale, 0 is no effect, 100 is complete control
[16] = Preemergence, 125 g ai/ha, 0 to 100 scale (0 no effect, 100 complete control)
[17] = Postemergence, 16 g ai/ha, scale 0 to 100
[18] = Postemergence, 31 g ai/ha, scale 0 to 100, 0 no effect, 100 complete control
[19] = Postemergence, 62 g ai/ha, scale 0 to 100, 0 no effect, 100 complete control
[20] = Preemergence, 16 g ai/ha, scale 0 to 100 (0 no effect, 100 complete control)
[21] = Preemergence, 31 g ai/ha, 0 to 100 scale, 0 no effect, 100 complete control
[22] = Preemergence, 62 g ai/ha, scale 0 to 100
[23] = 8 g ai/ha, postemergence, 0-100 scale
[24] = 31 g ai/ha, scale 0 to 100, 0 no effect, 100 complete control
[25] = 62 g ai/ha, scale 0 to 100, 0 no effect, 100 complete control

For `Cc1cc(-c2ccc(Cl)cc2)nn1-c1c(OC(=O)c2ccccc2Cl)cnn(C)c1=O` [Compound 38], the “Plant response rating, Barnyardgrass” value [1, 13] was 40, the “Plant response rating, Barnyardgrass” value [1, 14] was 100 and the “Plant response rating, Barnyardgrass” value [1, 15] was 90. For the same compound, the “Plant response rating, Barnyardgrass” value [1, 16] was 100, the “Plant response rating, Corn” value [2, 13] was 20 and the “Plant response rating, Corn” value [2, 14] was 90. The “Plant response rating, Corn” value [2, 15] was 0, the “Plant response rating, Corn” value [2, 16] was 70 and the “Plant response rating, Crabgrass, Large” value [3, 13] was 40. For the same compound, the “Plant response rating, Crabgrass, Large” value [3, 14] was 100, the “Plant response rating, Crabgrass, Large” value [3, 15] was 90 and the “Plant response rating, Crabgrass, Large” value [3, 16] was 100. The “Plant response rating, Morningglory” value [4, 13] was 0, the “Plant response rating, Morningglory” value [4, 14] was 0 and the “Plant response rating, Morningglory” value [4, 15] was 0. For the same compound, the “Plant response rating, Morningglory” value [4, 16] was 0, the “Plant response rating, Pigweed” value [5, 13] was 0 and the “Plant response rating, Pigweed” value [5, 14] was 0. The “Plant response rating, Pigweed” value [5, 15] was 0, the “Plant response rating, Pigweed” value [5, 16] was 0 and the “Ryegrass, Italian plant response rating” value ([6]; postemergence, 0-100 scale) was 10. The “Plant response rating, Ryegrass, Italian” value [6, 17] was 85, the “Plant response rating, Ryegrass, Italian” value [6, 18] was 85 and the “Plant response rating, Ryegrass, Italian” value [6, 19] was 98. The “Plant response rating, Ryegrass, Italian” value [6, 20] was 80, the “Plant response rating, Ryegrass, Italian” value [6, 21] was 95 and the “Plant response rating, Ryegrass, Italian” value [6, 22] was 100. The “Ryegrass, Italian plant response rating” value ([6]; Preemergence, scale 0 to 100) was 30, the “Bermudagrass plant response rating” value ([7]; postemergence, 0-100 scale) was 40 and the “Plant response rating, Bermudagrass” value [7, 17] was 85. The “Plant response rating, Bermudagrass” value [7, 18] was 100, the “Plant response rating, Bermudagrass” value [7, 19] was 100 and the “Bermudagrass plant response rating” value ([7]; Preemergence, scale 0 to 100 (0 no effect, 100 complete control)) was 60. For the same compound, the “Plant response rating, Bermudagrass” value [7, 20] was 100, the “Plant response rating, Bermudagrass” value [7, 21] was 100 and the “Plant response rating, Bermudagrass” value [7, 22] was 100. For the same compound, the “Johnsongrass plant response rating” value ([8]; postemergence, 0-100 scale) was 60, the “Plant response rating, Johnsongrass” value [8, 17] was 65 and the “Plant response rating, Johnsongrass” value [8, 18] was 90. The “Plant response rating, Johnsongrass” value [8, 19] was 100, the “Plant response rating, Johnsongrass” value [8, 21] was 70 and the “Plant response rating, Johnsongrass” value [8, 22] was 80. The “Johnsongrass plant response rating” value ([8]; Preemergence, scale 0 to 100) was 0, the “Canarygrass plant response rating” value [9, 23] was 0 and the “Plant response rating, Canarygrass” value ([9]; 16 g ai/ha, scale 0 to 100) was 0. For the same compound, the “Plant response rating, Canarygrass” value [9, 24] was 10, the “Plant response rating, Canarygrass” value [9, 25] was 30 and the “Chickweed plant response rating” value [10, 23] was 0. For the same compound, the “Plant response rating, Chickweed” value ([10]; 16 g ai/ha, scale 0 to 100) was 0, the “Plant response rating, Chickweed” value [10, 24] was 0 and the “Plant response rating, Chickweed” value [10, 25] was 0. For the same compound, the “Windgrass plant response rating” value [11, 23] was 0, the “Plant response rating, Windgrass” value ([11]; 16 g ai/ha, scale 0 to 100) was 0 and the “Plant response rating, Windgrass” value [11, 25] was 80. For the same compound, the “Barley plant response rating” value [12, 23] was 0, the “Plant response rating, Barley” value ([12]; 16 g ai/ha) was 0 and the “Plant response rating, Barley” value ([12]; 31 g ai/ha) was 10. The “Plant response rating, Barley” value ([12]; 62 g ai/ha) was 10.
